Where a name gives a salt, the structure may show the parent alone.
Biological target: T1, AR protein in VCaP cells (Homo sapiens, UniProt P10275)
T1 construct: endogenous in cells; host or cells: VCaP cells
T1 sequence (P10275 1-920): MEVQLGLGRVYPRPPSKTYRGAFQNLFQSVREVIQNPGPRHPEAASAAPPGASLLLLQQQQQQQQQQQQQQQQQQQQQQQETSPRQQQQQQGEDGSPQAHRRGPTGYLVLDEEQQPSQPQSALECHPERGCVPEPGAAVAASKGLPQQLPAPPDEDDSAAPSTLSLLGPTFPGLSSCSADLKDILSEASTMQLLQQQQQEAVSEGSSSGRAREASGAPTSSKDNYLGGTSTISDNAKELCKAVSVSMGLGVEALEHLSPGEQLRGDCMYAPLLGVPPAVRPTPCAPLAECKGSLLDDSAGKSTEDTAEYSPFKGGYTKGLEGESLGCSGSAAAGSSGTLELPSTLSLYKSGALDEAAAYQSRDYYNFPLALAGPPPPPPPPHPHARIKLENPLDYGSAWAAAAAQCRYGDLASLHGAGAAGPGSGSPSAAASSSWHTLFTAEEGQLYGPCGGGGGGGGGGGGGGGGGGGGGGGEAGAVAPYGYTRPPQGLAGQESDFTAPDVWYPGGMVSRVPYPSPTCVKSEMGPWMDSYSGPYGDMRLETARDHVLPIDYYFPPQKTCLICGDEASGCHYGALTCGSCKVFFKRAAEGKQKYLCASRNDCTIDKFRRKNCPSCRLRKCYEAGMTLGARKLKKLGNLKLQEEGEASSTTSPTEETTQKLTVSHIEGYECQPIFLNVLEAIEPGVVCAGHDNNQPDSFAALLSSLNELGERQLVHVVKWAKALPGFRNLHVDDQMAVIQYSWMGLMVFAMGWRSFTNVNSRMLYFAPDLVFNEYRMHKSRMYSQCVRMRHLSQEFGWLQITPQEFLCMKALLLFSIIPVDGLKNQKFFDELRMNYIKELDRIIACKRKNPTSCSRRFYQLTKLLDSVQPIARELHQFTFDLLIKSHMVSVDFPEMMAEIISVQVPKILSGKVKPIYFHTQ
Experiment: VCAP AR Degradation Assay
Assay type: cell-based
Details: 24 h, AR ELISA; for DC50: concentration at 50% of DMSO control (50% AR degradation); for Y: lowest measured AR level normalized to DMSO control
Protocol: VCAP AR Degradation Assay. Test compounds were pre-dispensed into a Corning CellBind 96-well clear bottom plate (Cat #3300) using an acoustic dispenser to make a 10-point concentration series at 1:3 dilution for each compound. The final top concentration of each compound was 5 μM. DMSO at a final concentration of 0.1% was used as a control. VCaP cells cultured in DMEM with 8% fetal bovine serum (FBS) were seeded at 50K cells per well in a 200 μL volume into the compound plate and incubated at 37° C. in a CO2 incubator for 24 h. The medium was carefully removed from the cells and the plate was placed on ice. One hundred μL of ice-cold 1× cell lysis buffer from Cell Signaling Technologies (Cat #9803) was added to each well of the cells and the plate was incubated at 4° C. on a shaker for 1 h. Fifteen μL of cell lysate was used for AR ELISA detection using a PathScan Total Sandwich AR ELISA kit (Cell Signaling Technology, Cat #12580). AR levels in compound-treated wells were normalized to that of DMSO control and expressed as percent of control (PoC) (y). A Four Parameter Logistic Model (Sigmoidal Dose-Response Model) was used to determine the compound's DC50, and EC50, using the following equation: y=(A+((B−A)/(1+((C/x)^D)))) • A=YMin (lowest AR level normalized to DMSO control in response to compound treatment, as determined by curve fit) • B=YMax (maximum AR level as determined by curve fit) • C=EC50 • D=Hill Slope • x=compound concentration • EC50=the concentration of compound when y=(YMax−YMin)/2 • DC50=the concentration of the compound when y=50% of DMSO control (50% AR degradation) • y=AR protein level normalized to DMSO control
The lowest measured AR level normalized to DMSO control in response to compound treatment, termed Y value, was used to characterize the compound-mediated AR degradation efficiency.

Row | SMILES | DC50 [nM] | Y
1 | C[C@@H]1CN(CCC[C@H]2CC[C@H](N3C(=S)N(c4ccc(C#N)c(C(F)(F)F)c4)C(=O)C3(C)C)CC2)C[C@H](C)N1CC(=O)Nc1cc(NC2CCC(=O)NC2=O)ccc1F (stereo partly drawn) [Cmpd 39, 2-((2R,6S)-4-(3-((trans)-4-(3-(4-Cyano-3-(trifluoromethyl)phenyl)-5,5-dimethyl-4-oxo-2-thioxoimidazolidin-1-yl)cyclohexyl)propyl)-2,6-dimethylpiperazin-1-yl)-N-(5-((2,6-dioxopiperidin-3-yl)amino)-2-fluorophenyl)acetamide] | 10 to 100 | *** (25%<Y<50%)
2 | CC1(C)C(=O)N(c2ccc(C#N)c(C(F)(F)F)c2)C(=S)N1[C@H]1CC[C@H](CCCN2CCN(CC(=O)Nc3cccc(NC4CCC(=O)NC4=O)c3)[C@@H](C(F)(F)F)C2)CC1 (stereo partly drawn) [Cmpd 29, 2-((R)-4-(3-((trans)-4-(3-(4-Cyano-3-(trifluoromethyl)phenyl)-5,5-dimethyl-4-oxo-2-thioxoimidazolidin-1-yl)cyclohexyl)propyl)-2-(trifluoromethyl)piperazin-1-yl)-N-(3-((2,6-dioxopiperidin-3-yl)amino)phenyl)acetamide] | 5 to 10 | * (0<Y≤15%)
3 | C[C@@H]1CN(CCO[C@H]2CC[C@H](N3C(=S)N(c4ccc(C#N)c(C(F)(F)F)c4)C(=O)C3(C)C)CC2)C[C@H](C)N1CC(=O)Nc1cccc(NC2CCC(=O)NC2=O)c1 (stereo partly drawn) [Cmpd 1, 2-((2R,6S)-4-(2-((trans-4-(3-(4-Cyano-3-(trifluoromethyl)phenyl)-5,5-dimethyl-4-oxo-2-thioxoimidazolidin-1-yl)cyclohexyl)oxy)ethyl)-2,6-dimethylpiperazin-1-yl)-N-(3-((2,6-dioxopiperidin-3-yl)amino)phenyl)acetamide] | 5 to 10 | *** (25%<Y<50%)
4 | C[C@@H]1CN(CCCC[C@H]2CC[C@H](N3C(=S)N(c4ccc(C#N)c(C(F)(F)F)c4)C(=O)C3(C)C)CC2)C[C@H](C)N1CC(=O)Nc1cccc(NC2CCC(=O)NC2=O)c1 (stereo partly drawn) [Cmpd 17, 2-((2R,6S)-4-(4-(trans-4-(3-(4-Cyano-3-(trifluoromethyl)phenyl)-5,5-dimethyl-4-oxo-2-thioxoimidazolidin-1-yl)cyclohexyl)butyl)-2,6-dimethylpiperazin-1-yl)-N-(3-((2,6-dioxopiperidin-3-yl)amino)phenyl)acetamide hydrochloride] | 10 to 100 | *** (25%<Y<50%)
5 | CC1(C)C(=O)N(c2ccc(C#N)c(C(F)(F)F)c2)C(=S)N1[C@H]1CC[C@H](OCCN2CCN(CC(=O)Nc3cc(F)cc(NC4CCC(=O)NC4=O)c3)[C@@H](C(F)(F)F)C2)CC1 (stereo partly drawn) [Cmpd 23, 2-((R)-4-(2-(((trans)-4-(3-(4-Cyano-3-(trifluoromethyl)phenyl)-5,5-dimethyl-4-oxo-2-thioxoimidazolidin-1-yl)cyclohexyl)oxy)ethyl)-2-(trifluoromethyl)piperazin-1-yl)-N-(3-((2,6-dioxopiperidin-3-yl)amino)-5-fluorophenyl)acetamide] | 5 to 10 | * (0<Y≤15%)
6 | C[C@@H]1C[C@H](CCO[C@H]2CC[C@H](N3C(=S)N(c4ccc(C#N)c(C(F)(F)F)c4)C(=O)C3(C)C)CC2)C[C@H](C)N1CC(=O)Nc1cccc(NC2CCC(=O)NC2=O)c1 (stereo partly drawn) [Cmpd 16, 2-((2R,4r,6S)-4-(2-((trans-4-(3-(4-Cyano-3-(trifluoromethyl)phenyl)-5,5-dimethyl-4-oxo-2-thioxoimidazolidin-1-yl)cyclohexyl)oxy)ethyl)-2,6-dimethylpiperidin-1-yl)-N-(3-((2,6-dioxopiperidin-3-yl)amino)phenyl)acetamide hydrochloride] | 5 to 10 | * (0<Y≤15%)
7 | C[C@@H]1CN(CCO[C@H]2CC[C@H](N3C(=S)N(c4ccc(C#N)c(Cl)c4)C(=O)C3(C)C)CC2)C[C@H](C)N1CC(=O)Nc1cccc(NC2CCC(=O)NC2=O)c1 (stereo partly drawn) [Cmpd 4, 2-((2R,6S)-4-(2-((trans-4-(3-(3-Chloro-4-cyanophenyl)-5,5-dimethyl-4-oxo-2-thioxoimidazolidin-1-yl)cyclohexyl)oxy)ethyl)-2,6-dimethylpiperazin-1-yl)-N-(3-((2,6-dioxopiperidin-3-yl)amino)phenyl)acetamide hydrochloride] | ≤ 5 | ** (15%<Y≤20%)
8 | C[C@@H]1CN(CCCO[C@H]2CC[C@H](N3C(=S)N(c4cnc(C#N)c(C(F)(F)F)c4)C(=O)C3(C)C)CC2)C[C@H](C)N1CC(=O)Nc1cccc(NC2CCC(=O)NC2=O)c1 (stereo partly drawn) [Cmpd 10, 2-((2R,6S)-4-(3-((trans-4-(3-(6-Cyano-5-(trifluoromethyl)pyridin-3-yl)-5,5-dimethyl-4-oxo-2-thioxoimidazolidin-1-yl)cyclohexyl)oxy)propyl)-2,6-dimethylpiperazin-1-yl)-N-(3-((2,6-dioxopiperidin-3-yl)amino)phenyl)acetamide hydrochloride] | ≤ 5 | ** (15%<Y≤20%)
9 | CC1(C)C(=O)N(c2cnc(C#N)c(C(F)(F)F)c2)C(=S)N1[C@H]1CC[C@H](OCCN2CCN(CC(=O)Nc3cccc(N[C@@H]4CCC(=O)NC4=O)c3)[C@@H](C(F)(F)F)C2)CC1 [Cmpd 42, 2-((R)-4-(2-(((trans)-4-(3-(6-Cyano-5-(trifluoromethyl)pyridin-3-yl)-5,5-dimethyl-4-oxo-2-thioxoimidazolidin-1-yl)cyclohexyl)oxy)ethyl)-2-(trifluoromethyl)piperazin-1-yl)-N-(3-(((R)-2,6-dioxopiperidin-3-yl)amino)phenyl)acetamide hydrochloride] | ≤ 5 | * (0<Y≤15%)
10 | CC1(C)C(=O)N(c2cnc(C#N)c(C(F)(F)F)c2)C(=S)N1[C@H]1CC[C@H](OCCN2CCN(CC(=O)Nc3cccc(N[C@H]4CCC(=O)NC4=O)c3)[C@@H](C(F)(F)F)C2)CC1 [Cmpd 41, 2-((R)-4-(2-(((trans)-4-(3-(6-Cyano-5-(trifluoromethyl)pyridin-3-yl)-5,5-dimethyl-4-oxo-2-thioxoimidazolidin-1-yl)cyclohexyl)oxy)ethyl)-2-(trifluoromethyl)piperazin-1-yl)-N-(3-(((S)-2,6-dioxopiperidin-3-yl)amino)phenyl)acetamide hydrochloride] | ≤ 5 | * (0<Y≤15%)
11 | C[C@@H]1C[C@@H](CCO[C@H]2CC[C@H](N3C(=S)N(c4cnc(C#N)c(C(F)(F)F)c4)C(=O)C3(C)C)CC2)C[C@H](C)N1CC(=O)Nc1cccc(NC2CCC(=O)NC2=O)c1 (stereo partly drawn) [Cmpd 22, 2-((2S,4s,6R)-4-(2-(((trans)-4-(3-(6-Cyano-5-(trifluoromethyl)pyridin-3-yl)-5,5-dimethyl-4-oxo-2-thioxoimidazolidin-1-yl)cyclohexyl)oxy)ethyl)-2,6-dimethylpiperidin-1-yl)-N-(3-((2,6-dioxopiperidin-3-yl)amino)phenyl)acetamide] | ≤ 5 | * (0<Y≤15%)
12 | C[C@@H]1CN(CCO[C@H]2CC[C@H](N3C(=S)N(c4cnc(C#N)c(Cl)c4)C(=O)C3(C)C)CC2)C[C@H](C)N1CC(=O)Nc1cccc(NC2CCC(=O)NC2=O)c1 (some centres unmarked) [Cmpd 8, hydrochloride] | 5 to 10 | *** (25%<Y<50%)
13 | CC1(C)C(=O)N(c2ccc(C#N)c(C(F)(F)F)c2)C(=S)N1[C@H]1CC[C@H](OCCN2CCN(CC(=O)Nc3cccc(NC4CCC(=O)NC4=O)c3)[C@@H](C(F)(F)F)C2)CC1 (stereo partly drawn) [Cmpd 19, 2-((R)-4-(2-((trans-4-(3-(4-Cyano-3-(trifluoromethyl)phenyl)-5,5-dimethyl-4-oxo-2-thioxoimidazolidin-1-yl)cyclohexyl)oxy)ethyl)-2-(trifluoromethyl)piperazin-1-yl)-N-(3-((2,6-dioxopiperidin-3-yl)amino)phenyl)acetamide hydrochloride] | 5 to 10 | * (0<Y≤15%)

Source: patent US12103920B2, “Cereblon binding compounds, compositions thereof, and methods of treatment therewith” (Celgene Corporation, priority 2020, dated 2024)
